Measured values as given in patent US9809563B2 (GIFU University, priority 2014, dated 2017).
Where a name gives a salt, the structure may show the parent alone. Read-outs that look alike come from different tables or passages of the source.

Columns and labels:
[1] = male, Crl:CD (SD), rat, in vivo, po, 1 mg/kg
[2] = rat, in vivo

SMILES: O=C(CN1CCCC1)Nc1ccc(C(c2ccc(NC(=O)CN3CCCC3)cc2)C2CCCCC2)cc1 [maleic acid salt, N,N′-[(cyclohexylmethylene)di-4,1-phenylene]bis[2-(1-pyrrolidinyl)acetamide] maleate]
- tmax Time required to reach maximum radioactivity concentration [1]: 4.0 h
- Concentrations of radioactivity in the cerebrum and cerebellum compared with blood [2]: higher than those in the blood
- Radioactivity in tissues relative to plasma [2]: 100 fold
- Blood concentration of radioactivity/plasma concentration of radioactivity (RB) ([2]; iv, 1 mg/kg): 10.18
- Distribution to blood cells (T) ([2]; iv, 1 mg/kg): 93.7%
- Radioactivity concentration Blood (Cb) ([2]; iv, 1 mg/kg): 39.7 ng eq./mL
- Radioactivity concentration Plasma (Cp) ([2]; iv, 1 mg/kg): 3.9 ng eq./mL
- Blood concentration of radioactivity/plasma concentration of radioactivity (RB) ([2]; iv, 10 mg/kg): 19.52
- Distribution to blood cells (T) ([2]; iv, 10 mg/kg): 96.5%
- Radioactivity concentration Blood (Cb) ([2]; iv, 10 mg/kg): 407.9 ng eq./mL
- Radioactivity concentration Plasma (Cp) ([2]; iv, 10 mg/kg): 20.9 ng eq./mL
- Blood concentration of radioactivity/plasma concentration of radioactivity (RB) ([2]; po, 1 mg/kg): 4.55
- Distribution to blood cells (T) ([2]; po, 1 mg/kg): 86.0%
- Radioactivity concentration Blood (Cb) ([2]; po, 1 mg/kg): 10.0 ng eq./mL
- Radioactivity concentration Plasma (Cp) ([2]; po, 1 mg/kg): 2.2 ng eq./mL
